Results on 13 compounds are retold here after ChEMBL document CHEMBL1201862, “PubChem BioAssay data set” (2004).

Test in all cases: NCI anticancer screen, dose series, 48 h
Experiment [1] relates to CAKI-1.
Experiment [2] deals with COLO 205.
Experiment [3] concerns DLD-1.
For experiment [4], the system named is HCC 2998.
In experiment [5] the test system is HOP-92.
Experiment [6] relates to HT-29.
Experiment [7] concerns LOX IMVI.
Experiment [8] has as its system MOLT-4.
The subject of experiment [9] is NCI-H226.
The subject of experiment [10] is NCI-H23.
Experiment [11] has as its system NCI-H522.
Experiment [12] deals with OVCAR-5.
Experiment [13] concerns RXF 393.
Experiment [14] has as its system SF-539.
The test system of experiment [15] is SK-OV-3.
Experiment [16] has as its system BT-549.
In experiment [17] the test system is Hs-578T.
The test system of experiment [18] is MDA-MB-231.
Experiment [19] relates to NCI/ADR-RES.
Experiment [20] deals with PC-3.

Molecules are shown by their SMILES.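 Following 48 hours of exposure in 96-well plates, responses at five concentrations were used to interpolate endpoints linearly. At the GI50, growth is halved.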 The source made the active and inactive calls. No stated cut-off is given here; in the data, active = GI50 up to about 1.1 µM and inactive = higher. Some results are limits rather than exact numbers.

With `O=c1c2ccccc2n2n1CC(O)C2` (stereo unspecified), the GI50 in experiment [1], in experiment [2], in experiment [3], in [4], in experiment [5] and in [6] was > 100 µM (inactive) in each case. Moreover, the GI50 in experiment [7], in experiment [8], in experiment [9], in [10], in experiment [11] and in [12] was > 100 µM (inactive) in each case. Also, the GI50 in [13], in experiment [14] and in experiment [15] was > 100 µM (inactive) throughout.
As for `CCN(CC)c1ccc2c(c1)Oc1ccc(N(CC)CC)cc1C21Oc2ccccc2-c2c1c1ccccc1n2CC` (stereo unspecified), the GI50 is 5.15 µM (inactive) in [1]; 2.45 µM (inactive) in experiment [2]; 3.48 µM (inactive) in experiment [3]; 3.07 µM (inactive) in [4]; 0.302 µM (active) in experiment [5]; 1.22 µM (inactive) in experiment [6]. Further, the GI50 is 3.24 µM (inactive) in experiment [7]; 2.88 µM (inactive) in [8]; 7.74 µM (inactive) in [9]; 2.07 µM (inactive) in experiment [10]; 1.3 µM (inactive) in [11]; 1.81 µM (inactive) in [13]. The GI50 in experiment [15] was 4.07 µM (inactive).
In the case of `COC(=O)/C(=N\NC(=O)c1ccccc1O)C(C#N)c1ccccc1` (stereo unspecified), the GI50 in experiment [1] was 27.7 µM (inactive); in experiment [2] it was > 50 µM (inactive); in [3] it was 24 µM (inactive); in experiment [4], > 50 µM (inactive); in experiment [5], 19.9 µM (inactive); in experiment [6], > 50 µM (inactive). Besides, the GI50 in [7] is 19.4 µM (inactive); in [8], 22.3 µM (inactive); in experiment [9], 12.7 µM (inactive); in experiment [10], 20.1 µM (inactive); in [11] it was 17.2 µM (inactive); in experiment [12] it was 20.9 µM (inactive). In addition, the results for the GI50 in experiment [13], in [14] and in [15] were 16.5 µM (inactive), 14.8 µM (inactive) and > 45.2 µM (inactive), respectively.
For `COc1ccc(/C=C/c2cc(OC)c(OC)c(OC)c2)cc1`, the GI50 in [1] was 3.53 µM (inactive); in [2], 3.14 µM (inactive); in [3], 0.897 µM (active); in [4] it was 3.7 µM (inactive); in experiment [5], 90.8 µM (inactive); in [6], 3.2 µM (inactive). Moreover, the GI50 is 5.52 µM (inactive) in [7]; 2.21 µM (inactive) in [8]; 5.61 µM (inactive) in experiment [9]; 5.81 µM (inactive) in experiment [10]; 2.85 µM (inactive) in experiment [11]; 1.85 µM (inactive) in experiment [12]. Moreover, the figures for the GI50 in [13], in [14] and in experiment [15] were 1.48 µM (inactive), 4.29 µM (inactive) and 8.59 µM (inactive), respectively.
For `Cc1c2ccccc2c(C)c2c3c(ccc12)C(=O)C=CC3=O`, the GI50 is 22.1 µM (inactive) in experiment [1]; 15.7 µM (inactive) in experiment [2]; 18.5 µM (inactive) in experiment [3]; 35.3 µM (inactive) in [4]; 15.1 µM (inactive) in experiment [5]; 28 µM (inactive) in experiment [6]. Further, the GI50 in experiment [7] was 25.8 µM (inactive); in [8], 2.26 µM (inactive); in experiment [9], > 89.5 µM (inactive); in experiment [10], 32.3 µM (inactive); in experiment [11], 13.6 µM (inactive); in experiment [12], > 100 µM (inactive). Besides, the GI50 in experiment [13] is 13 µM (inactive); in experiment [14], 35.6 µM (inactive); in [15], > 60.5 µM (inactive).
Turning to `CN(C)CCNC(=O)c1ccc2ccc3cccnc3c2n1`, the GI50 was 13.1 µM (inactive) in experiment [1]; 8.24 µM (inactive) in experiment [2]; 6.55 µM (inactive) in experiment [3]; 10.5 µM (inactive) in experiment [4]; 16.4 µM (inactive) in [5]; 9.14 µM (inactive) in [6]. Also, the GI50 in experiment [7] was 9.51 µM (inactive); in [8], 3.44 µM (inactive); in experiment [9], 14.3 µM (inactive); in experiment [10] it was 17.1 µM (inactive); in experiment [11], 7.23 µM (inactive); in [12] it was 14.6 µM (inactive). Besides, the figures for the GI50 in experiment [13], in experiment [14] and in [15] were 12.8 µM (inactive), 8.63 µM (inactive) and 19.5 µM (inactive), respectively.
On to `BrC(Br)=C1C(=C(Br)Br)C(Br)C1Br` (stereo unspecified), for which the GI50 was 0.327 µM (active) in experiment [16]; 0.132 µM (active) in experiment [1]; 0.849 µM (active) in experiment [2]; 0.573 µM (active) in [3]; 0.142 µM (active) in experiment [4]; 1.34 µM (inactive) in experiment [5]. For the same compound, the GI50 in experiment [6] is 0.362 µM (active); in [17], 2.51 µM (inactive); in experiment [7] it was 0.0706 µM (active); in experiment [18], 1.12 µM (inactive); in experiment [8], 0.121 µM (active); in experiment [9] it was 0.275 µM (active). The GI50 in [10] is 0.284 µM (active); in experiment [11], 0.139 µM (active); in experiment [19], 0.733 µM (active); in experiment [12] it was 1.69 µM (inactive); in experiment [20], 1.62 µM (inactive); in experiment [13], 0.226 µM (active). Further, the GI50 is 0.811 µM (active) in [14] and 3.33 µM (inactive) in experiment [15].
Regarding `Cc1c(Cl)cccc1NC(=O)C(=O)C(C(=O)c1ccccc1-c1ccccc1)C1OC(=O)c2ccccc21` (stereo unspecified), the GI50 is 20.2 µM (inactive) in [2]; 22.8 µM (inactive) in experiment [3]; 17.1 µM (inactive) in [4]; 15.2 µM (inactive) in experiment [5]; 33.1 µM (inactive) in [6]; 18.3 µM (inactive) in [7]. The GI50 was 14.3 µM (inactive) in experiment [8]; 3.94 µM (inactive) in [9]; 14.5 µM (inactive) in experiment [10]; 12.5 µM (inactive) in experiment [11]; 22.5 µM (inactive) in experiment [12]; 12.6 µM (inactive) in experiment [13]. Further, the figures for the GI50 in experiment [14] and in [15] were 14.7 µM (inactive) and 43 µM (inactive), respectively.
As to `COc1cc2c(c(OC)c1OC)-c1ccc(SC)c(=O)cc1C(CC(=O)Oc1cccc([N+](=O)[O-])c1)C2` (stereo unspecified), the GI50 was 0.685 µM (active) in experiment [1]; 0.489 µM (active) in [2]; 0.933 µM (active) in [3]; 0.161 µM (active) in experiment [4]; 3.09 µM (inactive) in experiment [5]; 0.362 µM (active) in experiment [6]. For the same compound, the GI50 was 0.867 µM (active) in experiment [7]; 1.15 µM (inactive) in experiment [8]; 0.764 µM (active) in experiment [9]; 0.78 µM (active) in experiment [10]; 0.493 µM (active) in [11]; 0.139 µM (active) in experiment [13]. Besides, the GI50 in [14] was 0.263 µM (active); in [15], 0.0736 µM (active).
For the compound `O=S(=O)(Cc1ccccc1)SCc1ccccc1`, the GI50 in experiment [1] is > 50.9 µM (inactive); in [2], 19.5 µM (inactive); in experiment [3], 7.71 µM (inactive); in experiment [4], 17.8 µM (inactive); in [5], 18.5 µM (inactive); in [6], 25.4 µM (inactive). Further, the GI50 in experiment [7] was 16.6 µM (inactive); in [8], 3.09 µM (inactive); in experiment [9] it was 24.5 µM (inactive); in experiment [10] it was 23.1 µM (inactive); in [11], 10.7 µM (inactive); in [12], > 74 µM (inactive). For the same compound, the values for the GI50 in experiment [13], in experiment [14] and in experiment [15] were 25.8 µM (inactive), 18.3 µM (inactive) and 48.5 µM (inactive), respectively.
As to `[C-]#[N+]C(C)(C)C[C@H]1CC(C)C2CCC(C)C3([N+]#[C-])CCC(=C)C1[C@H]23` (stereo partly specified), the GI50 in [1] is 3.19 µM (inactive); in [2], 0.166 µM (active); in experiment [3] it was 0.269 µM (active); in experiment [4] it was 5.83 µM (inactive); in experiment [5], 0.106 µM (active); in [6] it was 0.413 µM (active). Further, the GI50 in [7] was 0.147 µM (active); in [8] it was 0.316 µM (active); in [9], 2.32 µM (inactive); in experiment [10] it was 0.509 µM (active); in experiment [11], 1.95 µM (inactive); in experiment [12], 0.288 µM (active). Further, the results for the GI50 in [13], in [14] and in experiment [15] were 0.294 µM (active), 3.37 µM (inactive) and 3.69 µM (inactive), respectively.
In the case of `CCN(CC)CC[n+]1ccc2c(C)c3[nH]c4ccccc4c3c(C)c2c1`, the GI50 in experiment [16] is 1.3 µM (inactive); in experiment [1], 1.99 µM (inactive); in [3] it was 1.87 µM (inactive); in experiment [4], 0.468 µM (active); in experiment [6] it was 0.684 µM (active); in experiment [17] it was 0.0405 µM (active). Besides, the GI50 was 0.689 µM (active) in [7]; 0.65 µM (active) in experiment [18]; 0.106 µM (active) in [8]; 0.546 µM (active) in experiment [10]; 0.406 µM (active) in experiment [11]; 1.61 µM (inactive) in [12]. The GI50 in experiment [20] is 0.553 µM (active); in experiment [13] it was 1.55 µM (inactive); in experiment [14], 0.612 µM (active).
As to `CCCN(CCCC(NC(C)=O)C(=O)NCc1ccccc1)C(=O)N(C)N=O` (stereo unspecified), the GI50 in [1], in [2], in experiment [3], in experiment [4], in experiment [5] and in experiment [6] was > 100 µM (inactive) in each case. The GI50 in experiment [7] was > 100 µM (inactive); in experiment [8], 77.6 µM (inactive); in [9], > 100 µM (inactive); in experiment [10], > 100 µM (inactive); in experiment [11], > 100 µM (inactive); in experiment [12], > 100 µM (inactive). The GI50 in experiment [13], in [14] and in [15] was > 100 µM (inactive) each time.
